pIC50: −log10 of the molar value. Values after ≈ are worked out from the molar mass of the structure shown.
What was measured:
Type in all cases: functional, organism-based
Candida albicans = assay: Antimicrobial activity against Candida albicans ATCC 90028
Cryptococcus neoformans = assay: Antimicrobial activity against Cryptococcus neoformans ATCC 90113
Aspergillus fumigatus = assay: Antimicrobial activity against Aspergillus fumigatus ATCC 90906
[1] = system: Mycobacterium intracellulare; assay: Antimicrobial activity against Mycobacterium intracellular ATCC 23068

| Compound | pIC50 (Candida albicans) | pIC50 (Cryptococcus neoformans) | pIC50 (Aspergillus fumigatus) | pIC50 [1] | MBC [1] | MIC [1] |
| --- | --- | --- | --- | --- | --- | --- |
| C/C=C1\NC(=O)[C@H](Cc2ccccc2)NC(=O)[C@@H](C(C)C)NC(=O)[C@@H]([C@@H](C)CC)NC(=O)[C@H](NC(=O)[C@H](NC(=O)[C@H](CCCN(CCCCCC)CCCCCC)NC(=O)[C@H]2CCCN2C(=O)[C@H](NC(=O)[C@@H](NC(=O)[C@@H](NC(=O)[C@H](NC(=O)CCCC(C)C)C(C)C)[C@@H](C)O)C(C)C)C(C)C)[C@@H](C)CC)[C@@H](C)OC(=O)[C@H](C(C)C)NC1=O | < 4.91 | 5.17 | < 4.91 | < 4.70 | – | – |
| O=C(O)c1cn(C2CC2)c2cc(N3CCNCC3)c(F)cc2c1=O [CIPROFLOXACIN] | – | – | – | 6.38 | > 1 µM | 1 µM (≈ 0.331 µg/mL) |
| C/C=C1\NC(=O)[C@H](Cc2ccccc2)NC(=O)[C@@H](C(C)C)NC(=O)[C@@H]([C@@H](C)CC)NC(=O)[C@H](NC(=O)[C@H](NC(=O)[C@H](CCCNC(=O)c2cc3ccc(N(CC)CC)cc3oc2=O)NC(=O)[C@H]2CCCN2C(=O)[C@H](NC(=O)[C@@H](NC(=O)[C@@H](NC(=O)[C@H](NC(=O)CCCC(C)C)C(C)C)[C@@H](C)O)C(C)C)C(C)C)[C@@H](C)CC)[C@@H](C)OC(=O)[C@H](C(C)C)NC1=O | < 4.93 | < 4.93 | < 4.93 | < 4.93 | – | – |
| C/C=C1\NC(=O)[C@H](Cc2ccccc2)NC(=O)[C@@H](C(C)C)NC(=O)[C@@H]([C@@H](C)CC)NC(=O)[C@H](NC(=O)[C@H](NC(=O)[C@H](CCCN(Cc2ccc(F)cc2)Cc2ccc(F)cc2)NC(=O)[C@H]2CCCN2C(=O)[C@H](NC(=O)[C@@H](NC(=O)[C@@H](NC(=O)[C@H](NC(=O)CCCC(C)C)C(C)C)[C@@H](C)O)C(C)C)C(C)C)[C@@H](C)CC)[C@@H](C)OC(=O)[C@H](C(C)C)NC1=O | < 4.93 | < 4.93 | < 4.93 | < 4.93 | – | – |
| C/C=C1\NC(=O)[C@H](Cc2ccccc2)NC(=O)[C@@H](C(C)C)NC(=O)[C@@H]([C@@H](C)CC)NC(=O)[C@H](NC(=O)[C@H](NC(=O)[C@H](CCCNCc2ccncc2)NC(=O)[C@H]2CCCN2C(=O)[C@H](NC(=O)[C@@H](NC(=O)[C@@H](NC(=O)[C@H](NC(=O)CCCC(C)C)C(C)C)[C@@H](C)O)C(C)C)C(C)C)[C@@H](C)CC)[C@@H](C)OC(=O)[C@H](C(C)C)NC1=O | 5.38 | 5.67 | 5.37 | < 4.70 | – | – |
